Where “and” joins values, the source holds several entries; their conditions need not be identical. Identical values can stand only once. Entries after “also recorded” stand apart in the source; their conditions may differ.
System: ROS1-positive advanced NSCLC
Test: Phase I clinical trial, indication expansion phase: efficacy in group B (ROS1-positive, prior crizotinib)
Type: in vivo, human
Procedure: The anti-tumor efficacy is evaluated according to RECIST version 1.1. For patients initially evaluated as having a complete response (CR) or partial response (PR), efficacy should be confirmed at least 4 weeks later. In the patients with asymptomatic central nervous system (CNS) metastases, in addition to evaluating 5 extracranial target lesions, up to 5 intracranial target lesions will also be evaluated. The specific indicators are as follows:
"ORR" includes CR and PR, and is defined as the proportion of patients who achieve complete response or partial response.
"IC-ORR" includes CR or PR for confirmed intracranial lesions, and is defined as the proportion of the patients with complete response or partial response of intracranial lesions among the patients with intracranial lesions.
"DCR" is defined as the proportion of the patients who achieve response (PR+CR) and stable disease (SD) after a treatment.
"IC-DCR" is defined as the proportion of the patients who achieve intracranial response (PR+CR), intracranial stable disease (SD), and […] after a treatment among the patients with intracranial lesions.
"DOR" is defined as the time from the first assessment of CR or PR to progressive disease or death, and is only applicable to the patients who achieve response.
"IC-DOR" is defined as the time from the first assessment of intracranial CR or intracranial PR to progressive disease or death, and is only applicable to the patients whose intracranial lesions achieve response.
"TTR" is defined as the time from patient enrollment (first dose of investigational drug) to tumor response (CR/PR), based on the patients with objective response.
"IC-TTR" is defined as the time from patient enrollment (first dose of investigational drug) to intracranial tumor response (IC-CR/PR), based on the patients with intracranial objective response.
"PFS" is defined as the time from the first administration of the investigational drug to progressive disease (PD) or death from any cause, whichever comes first.
In the indication expansion phase, an appropriate administration regimen was determined based on the safety, tolerability, PK and efficacy data from the dose escalation phase and dose expansion phase, and the expansion was performed within the target population.
The result of a pregnancy test conducted ≤7 days prior to the first administration of the investigational drug must be negative for the women of childbearing age.

[1] = intracranial measurable lesions, Group B (n=6)

SMILES: [2H]C([2H])([2H])n1nc2c(c1C#N)-c1cnc(N)c(c1)O[C@H](C)c1cc(F)ccc1C(=O)N(C)C2 [compound A, (10R)-7-amino-12-fluoro-2-(methyl-d3)-10,16-dimethyl-15-oxo-10,15,16,17-tetrahydro-2H-8,4-(metheno)pyrazolo[4,3-h][2,5,11]benzoxadiazacyclotetradecine-3-carbonitrile]
- ORR (24 ROS1-positive NSCLC patients previously treated with crizotinib): 29.2%
- intracranial ORR (ROS1-positive, six patients with measurable CNS lesions at baseline): 50.0%
- median PFS (group B, FAS, as of April 17, 2024): 8.36 months
- BOR CR [1]: 0 n (%)
- BOR NE [1]: 0 n (%)
- BOR PD [1]: 1 (16.7) n (%)
- BOR PR [1]: 3 n (%) and 3 (50.0) n (%)
- BOR SD [1]: 2 (33.3) n (%)
- Confirmed ORR (95% CI) [1]: 3 (50.0) (11.8, 88.2) n (%)
- DCR (95% CI) [1]: 5 (83.3) (35.9, 99.6) n (%)
- Median DOR (95% CI) [1]: not reached
- Median TTR (range) [1]: 1.41 months and 1.41 (1.35, 1.41) months
- BOR CR (systemic, Group B (n=24)): 0 n (%)
- BOR NE (systemic, Group B (n=24)): 0 n (%)
- BOR PD (systemic, Group B (n=24)): 7 (29.2) n (%)
- BOR PR (systemic, Group B (n=24)): 7 (29.2) n (%)
- BOR SD (systemic, Group B (n=24)): 10 (41.7) n (%)
- Confirmed ORR (95% CI) (systemic, Group B (n=24)): 7 (29.2) (12.6,51.1) n (%)
- DCR (95% CI) (systemic, Group B (n=24)): 17 (70.8) (48.9, 87.4) n (%)
- Median DOR (95% CI) (systemic, Group B (n=24)): not reached; also recorded: NR (4.370, -)
- Median TTR (range) (systemic, Group B (n=24)): 1.41 months and 1.41 (1.31, 7.03) months
